Tested on: Balb/c female mice
Assay: Transepidermal water loss in pups of mothers receiving SCFA in drinking water during pregnancy (TEWLmeter method)
Format: in vivo
Conditions: 200 mM in drinking water of pregnant mothers from day 1 of pregnancy; TEWL at day 3 after birth; vs regular drinking water; FIG. 1
Procedure: • Breeding pairs were set up with 1 Balb/c male and 2 Balb/c female mice. • From day 1 of pregnancy, female mice received 200 mM sodium acetate or sodium propionate ad libitum in drinking water. These doses correspond to 0.05-0.1 and 0.05-0.08 g/mouse/day, respectively. Control female mice received regular drinking water. • Cages were monitored from day 18-24 for litters. Regular drinking water was recommenced in the mothers as soon as pups were born. 6-7 pups per group were included in the experiment. • Transepidermal water loss was measured at day 3 after birth (baseline TEWL) by the TEWLmeter method and given in g·h^−1·m^−2.

## CCC(=O)[O-].[Na+] [propionate, sodium propionate]
  transepidermal water loss in offspring: significantly decreased

## CC(=O)[O-].[Na+] [acetate, sodium acetate]
  transepidermal water loss in offspring: significantly decreased

Source: patent publication US10751308B2, “Composition for preventing or reducing transepidermal water loss” (NESTEC S.A., priority 2016, dated 2020)
